# ChEMBL document CHEMBL1155095, “Synthesis and cytotoxicity of aurilide analogs” (Bioorg Med Chem Lett, 2008)
# Tested on: HeLa
# Assay: Cytotoxicity against human HeLa S3 cells
# Type: functional, cell-based
row,Structure (SMILES),IC50 [µg/mL]
1,CC/C=C(\C)[C@H]1OC(=O)[C@H](C)N(C)C(=O)[C@@H](C(C)C)NC(=O)CN(C)C(=O)[C@@H](CC(C)C)N(C)C(=O)[C@H](C(C)C)NC(=O)[C@@H]([C@@H](C)CC)OC(=O)/C(C)=C/C[C@H](O)[C@@H]1C,> 4
2,CC/C=C(\C)[C@H]1OC(=O)[C@H](C)N(C)C(=O)[C@H](C(C)C)NC(=O)CN(C)C(=O)[C@@H](CC(C)C)N(C)C(=O)[C@H](CCCCNC(=O)OC(C)(C)C)NC(=O)[C@@H]([C@@H](C)CC)OC(=O)/C(C)=C/C[C@H](O)[C@@H]1C,0.032
3,CC/C=C(\C)[C@H]1OC(=O)[C@H](C)N(C)C(=O)[C@H](C(C)C)NC(=O)CN(C)C(=O)[C@@H](CC(C)C)N(C)C(=O)[C@H](C(C)C)NC(=O)[C@@H]([C@@H](C)CC)OC(=O)/C(C)=C/C[C@H](OC(=O)CCCCCNC(=O)OCC2c3ccccc3-c3ccccc32)[C@@H]1C,0.42
4,CC/C=C(\C)[C@H]1OC(=O)[C@H](C)N(C)C(=O)[C@H](CCCCNC(=O)OC(C)(C)C)NC(=O)CN(C)C(=O)[C@@H](CC(C)C)N(C)C(=O)[C@H](C(C)C)NC(=O)[C@@H]([C@@H](C)CC)OC(=O)/C(C)=C/C[C@H](O)[C@@H]1C,0.26
5,CC/C=C(\C)[C@H]1OC(=O)[C@H](CCCCNC(=O)OC(C)(C)C)N(C)C(=O)[C@H](C(C)C)NC(=O)CN(C)C(=O)[C@@H](CC(C)C)N(C)C(=O)[C@H](C(C)C)NC(=O)[C@@H]([C@@H](C)CC)OC(=O)/C(C)=C/C[C@H](O)[C@@H]1C,0.02
6,CC/C=C(\C)[C@H]1OC(=O)[C@H](C)N(C)C(=O)[C@H](C(C)C)NC(=O)CN(C)C(=O)[C@@H](CC(C)C)N(C)C(=O)[C@H](C(C)C)NC(=O)[C@@H]([C@@H](C)CC)OC(=O)/C(C)=C/C[C@H](OC(=O)CCCCCNC(=O)CCC(=O)O)[C@@H]1C,0.14
7,CC/C=C(\C)[C@H]1OC(=O)[C@H](C)N(C)C(=O)[C@@H](C(C)C)NC(=O)CN(C)C(=O)[C@@H](CC(C)C)N(C)C(=O)[C@H](C(C)C)NC(=O)[C@@H]([C@@H](C)CC)OC(=O)/C(C)=C/C[C@H](OC(=O)CCCCCNC(=O)CCC(=O)O)[C@@H]1C,> 10
8,CC/C=C(\C)[C@H]1OC(=O)[C@H](C)N(C)C(=O)[C@H](C(C)C)NC(=O)CN(C)C(=O)[C@@H](CC(C)C)N(C)C(=O)[C@H](C(C)C)NC(=O)[C@@H]([C@@H](C)CC)OC(=O)/C(C)=C/C[C@H](O)[C@@H]1C [AURILIDE],0.0024
9,CC/C=C(\C)[C@H]1OC(=O)[C@H](C)N(C)C(=O)[C@H](C(C)C)NC(=O)CN(C)C(=O)[C@@H](CC(C)C)N(C)C(=O)[C@H](C(C)C)NC(=O)[C@@H]([C@@H](C)CC)OC(=O)/C(C)=C/CC[C@@H]1C [DEOXYAURILIDE],0.017
